# Measured values taken from patent publication US10238688B2, “Combination therapies for bladder cancer” (GENEDIA BIOTECH CO. LTD., priority 2015, dated 2019).
# Key:
# [1] = system: SCaBER; test: MTT cell survival / IC50, SCaBER squamous carcinoma cells; format: cell-based, human; conditions: for Cell survival (%): Table S3, ng/ml: Pi 40, Pa 160, EH 250, Ci 1500, Mi 200, 1=Ci/Mi, 2=EH/Ci/Mi, 3=Pa/Ci/Mi, 4=Pi/Ci/Mi; for Single drug 4X Cell Survival (%): ng/ml: EH 1000, Ci 6000, Mi 800, Pi 160, Pa 640, Ge 20, EH/Ci/Mi regimen
# Experimental: (§1) The clinical grade of the chemotherapeutics (NCI Dictionary of Cancer Terms) was provided by the First Affiliated Hospital of Harbin Medical University: Pirarubicin (Pi, Wanle, Shenzhen), Paclitaxel (Pa, Taiji, Sichuan), Adriamycin (Ad, Pfizer, Jiangsu), Epirubicin Hydrochloride (EH, Haizheng, Zhejiang), Hydroxycamptothecin (Hy, Lishizhen, Hubei), Cisplatin (Ci, Haosen, Jiangsu), Gemcitabine (Ge, Haosen, Jiangsu) and Mitomycin (Mi, Haizheng, Zhejiang). The drug induced cell death was determined by a thiazolyl […] (MTT, 490 nm reading) based cell proliferation assay in the cultured cells following treatment by various concentrations of drugs for 72 hours. The relative chemoresistance to each drug of all cell lines was calculated with the lowest IC50 as a reference. The overall chemoresistance of each cell line was described as “chemoresistance index”, the numerator of the total relative IC50 to all the drugs over the number of drugs to rank the overall resistance state of each cell line to the six chemotherapeutics collectively.
# (§2) The relative IC50 (fold) of each drug of all nine cell lines was normalized to the lowest IC50 in the most sensitive cell line (FIG. 2G), to describe the single drug resistance of cell lines. The overall chemoresistance of each cell line, a “chemoresistance index” (the numerator of the total relative IC50 over the number of drugs) (FIG. 2G) were calculated to rank the overall resistance state of each cell line to this six chemotherapeutics.
# [2] = system: H-bc; test: MTT cell survival / IC50, H-bc cells; format: cell-based, human; conditions: for Cell survival 72 hours / ACS (%): H-bc cells; for Cell survival 72 hours: Table 4 (A); for ACS (%): Table 4 (B); for Cell survival (%) / Single drug 4X Cell Survival (%): H-bc; for Cell survival (%): Table S3, ng/ml: Pi 40, Pa 160, EH 250, Ci 1500, Mi 200, 1=Ci/Mi, 2=EH/Ci/Mi, 3=Pa/Ci/Mi, 4=Pi/Ci/Mi; for Single drug 4X Cell Survival (%): ng/ml: EH 1000, Ci 6000, Mi 800, Pi 160, Pa 640, Ge 20, EH/Ci/Mi regimen
# Experimental: as §1, §2
# (§3) Twenty six-drug combinations at the indicated doses were initially generated through a random number generator (using MATLAB MathWorks©, Natick, Mass., U.S.) (The upper half of Table 1). The cell survival (% over the not drug control) of treated cells was determined and then used for a calculation of the average cumulative cell survival (%, ACS: the sum of cell survival (%) per combination divided by the number of cell lines tested). ACS<30% was used to separate the effective from the not-effective combinations.
# [3] = system: nine cancer-associated signaling pathways; test: Pearson correlation of collective drug-triggered pathway activities (single drug versus EH/Ci/Mi regimen)
# Excerpt: To calculate the correlation coefficients between the two cell lines, the R language statistics function “cor{stats}” was used to generate the correlation matrix between multiple cell lines.
# This example then determined the correlation coefficient between the overall activity of these nine pathways and the chemoresistance state of these five cell lines. […] The overall state of activity of these pathways in each cell line are summarized (FIG. 4E) and the correlation coefficient of each pair of cell lines is calculated (FIG. 4F).
# [4] = system: MAPK/ERK pathway; test: Cignal Finder dual-luciferase pathway reporter, MAPK/ERK; format: cell-based, human; conditions: for Relative activity, MAPK/ERK reporter: luc/Renluc relative to negative control reporter, single drug at 4 folds vs EH/Ci/Mi combination
# Experimental: (§4) The pathway analysis was performed with Qiagen's Cignal Finder Pathway Reporter Array systems according to the manufacturer's instructions. The pathway-focused dual-luciferase reporter construct was a mixture of an inducible transcription factor responsive firefly luciferase reporter and constitutively expressing renilla construct. Transcriptional response element (TRE) sequence response elements to each specific transcriptional factor triggered by the different signaling pathways are positioned before the TATA box of firefly luciferase reporter gene. The extent of activity of the reporter reflects the level of activity of the particular signaling pathway. CMV controlled renilla expression vector is co-transfected into the cell as an internal control. Non-inducible reporter construct that lacks the transcriptional factor binding sequence and could not be induced by any transcription factors is used as a negative control. Cells transfected with CMV directed firefly luciferase reporter gene serve as a positive control. Briefly, cells seeded in 6-well plates were transfected with Cignal finder pathway arrays according to the manufacturer's instructions (Qiagen). Then cells were seeded onto 96-well plates. Ci (6000 ng/mL), Mi (800 ng/mL), or EH (1000 ng/mL) and Ci/Mi/EH combination (Ci, 1500 ng/mL, Mi, 800 ng/mL and EH, 1000 ng/m L) were then added to the cells 24 h post-transfection. After 6 h of incubation with the different drugs at 37° C., cells were lysed and a dual luciferase assay (for firefly and renilla luciferase) was performed using a PromegaGloMax 20/20 illuminometer. The firefly luciferase activities were normalized over the renilla luciferase activities after background activity determined by luciferase activities of negative controls was subtracted. A triple test of cell survival under these drug doses was also performed by MTT assay following 18 h incubation at 37° C. […]
# [5] = system: UM-UC-3; test: MTT cell survival / IC50, UM-UC-3 cells; format: cell-based, human; conditions: for Cell survival (%) / Single drug 4X Cell Survival (%): UM-UC-3; for Cell survival (%): Table S3, ng/ml: Pi 40, Pa 160, EH 250, Ci 1500, Mi 200, 1=Ci/Mi, 2=EH/Ci/Mi, 3=Pa/Ci/Mi, 4=Pi/Ci/Mi; for Single drug 4X Cell Survival (%): ng/ml: EH 1000, Ci 6000, Mi 800, Pi 160, Pa 640, Ge 20, EH/Ci/Mi regimen; for ACS (%): UM-UC-3 cells, Table 4 (B); for Cell survival 72 hours: Um-Uc-3 cells, Table 4 (A)
# Experimental: as §1, §2, §3
# [6] = system: Cell Cycle/pRb-E2F pathway; test: Cignal Finder dual-luciferase pathway reporter, Cell Cycle/pRb-E2F; format: cell-based, human; parameters: key to Relative activity, Cell Cycle/pRb-E2F reporter: firefly/renilla ratio, background (negative control) subtracted; conditions: for Relative activity, Cell Cycle/pRb-E2F reporter: luc/Renluc relative to negative control reporter, single drug at 4 folds vs EH/Ci/Mi combination
# Experimental: as §4
# [7] = system: Biu87; test: MTT cell survival / IC50, Biu87 cells; format: cell-based, human; conditions: for Cell survival (%) / Single drug 4X Cell Survival (%): Biu87; for Cell survival (%): Table S3, ng/ml: Pi 40, Pa 160, EH 250, Ci 1500, Mi 200, 1=Ci/Mi, 2=EH/Ci/Mi, 3=Pa/Ci/Mi, 4=Pi/Ci/Mi; for Single drug 4X Cell Survival (%): ng/ml: EH 1000, Ci 6000, Mi 800, Pi 160, Pa 640, Ge 20, EH/Ci/Mi regimen; for Cell survival 72 hours / ACS (%): Biu87 cells; for Cell survival 72 hours: Table 4 (A); for ACS (%): Table 4 (B)
# Experimental: as §1, §2, §3
compound,measurement,setting,value
"N.N.[Cl][Pt][Cl] [Ci, (SP-4-2)-diamminedichloroplatinum(II)]",Cell survival (%),[1],22.05%
same,Single drug 4X Cell Survival (%),[1],5.58%
same,Cell survival 72 hours,[2],1.61%
same,ACS (%),[2],1.61%
same,Cell survival (%),[2],41.98%
same,Single drug 4X Cell Survival (%),[2],1.61%
same,Correlation coefficients versus EH/Ci/Mi,[3]; 5637 cells,0.9177
same,Correlation coefficients versus EH/Ci/Mi,[3]; Biu87 cells,0.3273
same,Correlation coefficients versus EH/Ci/Mi,[3]; H-bc cells,0.6934
same,Correlation coefficients versus EH/Ci/Mi,[3]; SV-HUC-1 cells,1
same,Correlation coefficients versus EH/Ci/Mi,[3]; UmUc3 cells,−0.7559
same,"relative drug trigged pathway activity over the no-drug level, MAPK/ERK",[4]; 5637 cells,1.74 fold
same,"Relative activity, MAPK/ERK reporter",[4]; 5637 cells,90.77
same,"digitalized pathway activity, MAPK/ERK",[4]; Biu87 cells,0 (null (0) if neither of the above holds)
same,"relative drug trigged pathway activity over the no-drug level, MAPK/ERK",[4]; Biu87 cells,0.66 fold
same,"Relative activity, MAPK/ERK reporter",[4]; Biu87 cells,321.19
same,"digitalized pathway activity, MAPK/ERK",[4]; H-bc cells,0 (null (0) if neither of the above holds)
same,"relative drug trigged pathway activity over the no-drug level, MAPK/ERK",[4]; H-bc cells,0.71 fold
same,"Relative activity, MAPK/ERK reporter",[4]; H-bc cells,340.57
same,"relative drug trigged pathway activity over the no-drug level, MAPK/ERK",[4]; SV-HUC-1 cells,1.65 fold
same,"Relative activity, MAPK/ERK reporter",[4]; SV-HUC-1 cells,389.00
same,"digitalized pathway activity, MAPK/ERK",[4]; UM-UC-3 cells,0 (null (0) if neither of the above holds)
same,"Relative activity, MAPK/ERK reporter",[4]; UM-UC-3 cells,72.05
same,"relative drug trigged pathway activity over the no-drug level, MAPK/ERK",[4]; Um-Uc-3 cells,0.51 fold
same,Cell survival (%),[5],14.71%
same,Single drug 4X Cell Survival (%),[5],9.33%
same,ACS (%),[5],9.33%
same,Cell survival 72 hours,[5],9.33%
same,"relative drug trigged pathway activity over the no-drug level, Cell Cycle/pRb-E2F",[6]; 5637 cells,1.95 fold
same,"Relative activity, Cell Cycle/pRb-E2F reporter",[6]; 5637 cells,1.77
same,"digitalized pathway activity, Cell Cycle/pRb-E2F",[6]; Biu87 cells,0 (null (0) if neither of the above holds)
same,"relative drug trigged pathway activity over the no-drug level, Cell Cycle/pRb-E2F",[6]; Biu87 cells,0.55 fold
same,"Relative activity, Cell Cycle/pRb-E2F reporter",[6]; Biu87 cells,0.31
same,"digitalized pathway activity, Cell Cycle/pRb-E2F",[6]; H-bc cells,0 (null (0) if neither of the above holds)
same,"relative drug trigged pathway activity over the no-drug level, Cell Cycle/pRb-E2F",[6]; H-bc cells,0.51 fold
same,"Relative activity, Cell Cycle/pRb-E2F reporter",[6]; H-bc cells,5.86
same,"relative drug trigged pathway activity over the no-drug level, Cell Cycle/pRb-E2F",[6]; SV-HUC-1 cells,1.71 fold
same,"Relative activity, Cell Cycle/pRb-E2F reporter",[6]; SV-HUC-1 cells,8.40
same,"Relative activity, Cell Cycle/pRb-E2F reporter",[6]; UM-UC-3 cells,2.29
same,"relative drug trigged pathway activity over the no-drug level, Cell Cycle/pRb-E2F",[6]; Um-Uc-3 cells,0.39 fold
same,Cell survival (%),[7],20.94%
same,Single drug 4X Cell Survival (%),[7],12.93%
same,Cell survival 72 hours,[7],12.93%
same,ACS (%),[7],12.93%
"COc1cccc2c1C(=O)c1c(O)c3c(c(O)c1C2=O)C[C@@](O)(C(=O)CO)C[C@@H]3[C@@H]1C[C@H](N)[C@@H](O)[C@H](C)O1 [EH, (8R,10S)-10-((2S,4S,5R,6S)-4-amino-5-hydroxy-6-methyltetrahydro-2H-pyran-2-yl)-6,8,11-trihydroxy-8-(2-hydroxyacetyl)-1-methoxy-7,8,9,10-tetrahydrotetracene-5,12-dione]",Cell survival (%),[1],38.31%
same,Single drug 4X Cell Survival (%),[1],6.67%
same,Cell survival 72 hours,[2],2.60%
same,ACS (%),[2],2.60%
same,Cell survival (%),[2],61.03%
same,Single drug 4X Cell Survival (%),[2],2.6%
same,Correlation coefficients versus EH/Ci/Mi,[3]; 5637 cells,0.9177
same,Correlation coefficients versus EH/Ci/Mi,[3]; Biu87 cells,0.982
same,Correlation coefficients versus EH/Ci/Mi,[3]; H-bc cells,0.9707
same,Correlation coefficients versus EH/Ci/Mi,[3]; SV-HUC-1 cells,0.9449
same,Correlation coefficients versus EH/Ci/Mi,[3]; UmUc3 cells,0.3712
same,"relative drug trigged pathway activity over the no-drug level, MAPK/ERK",[4]; 5637 cells,2.26 fold
same,"Relative activity, MAPK/ERK reporter",[4]; 5637 cells,117.70
same,"digitalized pathway activity, MAPK/ERK",[4]; Biu87 cells,0 (null (0) if neither of the above holds)
same,"relative drug trigged pathway activity over the no-drug level, MAPK/ERK",[4]; Biu87 cells,1.24 fold
same,"Relative activity, MAPK/ERK reporter",[4]; Biu87 cells,608.33
same,"digitalized pathway activity, MAPK/ERK",[4]; H-bc cells,0 (null (0) if neither of the above holds)
same,"relative drug trigged pathway activity over the no-drug level, MAPK/ERK",[4]; H-bc cells,0.75 fold
same,"Relative activity, MAPK/ERK reporter",[4]; H-bc cells,95.16
same,"digitalized pathway activity, MAPK/ERK",[4]; SV-HUC-1 cells,0 (null (0) if neither of the above holds)
same,"relative drug trigged pathway activity over the no-drug level, MAPK/ERK",[4]; SV-HUC-1 cells,0.95 fold
same,"Relative activity, MAPK/ERK reporter",[4]; SV-HUC-1 cells,225.00
same,"Relative activity, MAPK/ERK reporter",[4]; UM-UC-3 cells,183.22
same,"relative drug trigged pathway activity over the no-drug level, MAPK/ERK",[4]; Um-Uc-3 cells,1.29 fold
same,Cell survival (%),[5],43.54%
same,Single drug 4X Cell Survival (%),[5],25.19%
same,ACS (%),[5],25.19%
same,Cell survival 72 hours,[5],25.19%
same,"relative drug trigged pathway activity over the no-drug level, Cell Cycle/pRb-E2F",[6]; 5637 cells,5.15 fold
same,"Relative activity, Cell Cycle/pRb-E2F reporter",[6]; 5637 cells,4.67
same,"relative drug trigged pathway activity over the no-drug level, Cell Cycle/pRb-E2F",[6]; Biu87 cells,3.95 fold
same,"Relative activity, Cell Cycle/pRb-E2F reporter",[6]; Biu87 cells,2.24
same,"digitalized pathway activity, Cell Cycle/pRb-E2F",[6]; H-bc cells,0 (null (0) if neither of the above holds)
same,"relative drug trigged pathway activity over the no-drug level, Cell Cycle/pRb-E2F",[6]; H-bc cells,1.47 fold
same,"Relative activity, Cell Cycle/pRb-E2F reporter",[6]; H-bc cells,4.44
same,"relative drug trigged pathway activity over the no-drug level, Cell Cycle/pRb-E2F",[6]; SV-HUC-1 cells,2.45 fold
same,"Relative activity, Cell Cycle/pRb-E2F reporter",[6]; SV-HUC-1 cells,12.00
same,"Relative activity, Cell Cycle/pRb-E2F reporter",[6]; UM-UC-3 cells,17.25
same,"relative drug trigged pathway activity over the no-drug level, Cell Cycle/pRb-E2F",[6]; Um-Uc-3 cells,2.91 fold
same,Cell survival (%),[7],38.68%
same,Single drug 4X Cell Survival (%),[7],23.24%
same,Cell survival 72 hours,[7],23.24%
same,ACS (%),[7],23.24%
